Here are results for eight compounds from patent US7674819B2 (Warner-Lambert Company LLC, priority 2005, dated 2010).

SMILES strings stand for the structures. Positions count from the first letter of the chain named. Read-outs that look alike come from different tables or passages of the source.

The target in one data set is T1, androgen receptor (Homo sapiens, UniProt P10275).
T1 sequence (P10275 1-920 Q868H): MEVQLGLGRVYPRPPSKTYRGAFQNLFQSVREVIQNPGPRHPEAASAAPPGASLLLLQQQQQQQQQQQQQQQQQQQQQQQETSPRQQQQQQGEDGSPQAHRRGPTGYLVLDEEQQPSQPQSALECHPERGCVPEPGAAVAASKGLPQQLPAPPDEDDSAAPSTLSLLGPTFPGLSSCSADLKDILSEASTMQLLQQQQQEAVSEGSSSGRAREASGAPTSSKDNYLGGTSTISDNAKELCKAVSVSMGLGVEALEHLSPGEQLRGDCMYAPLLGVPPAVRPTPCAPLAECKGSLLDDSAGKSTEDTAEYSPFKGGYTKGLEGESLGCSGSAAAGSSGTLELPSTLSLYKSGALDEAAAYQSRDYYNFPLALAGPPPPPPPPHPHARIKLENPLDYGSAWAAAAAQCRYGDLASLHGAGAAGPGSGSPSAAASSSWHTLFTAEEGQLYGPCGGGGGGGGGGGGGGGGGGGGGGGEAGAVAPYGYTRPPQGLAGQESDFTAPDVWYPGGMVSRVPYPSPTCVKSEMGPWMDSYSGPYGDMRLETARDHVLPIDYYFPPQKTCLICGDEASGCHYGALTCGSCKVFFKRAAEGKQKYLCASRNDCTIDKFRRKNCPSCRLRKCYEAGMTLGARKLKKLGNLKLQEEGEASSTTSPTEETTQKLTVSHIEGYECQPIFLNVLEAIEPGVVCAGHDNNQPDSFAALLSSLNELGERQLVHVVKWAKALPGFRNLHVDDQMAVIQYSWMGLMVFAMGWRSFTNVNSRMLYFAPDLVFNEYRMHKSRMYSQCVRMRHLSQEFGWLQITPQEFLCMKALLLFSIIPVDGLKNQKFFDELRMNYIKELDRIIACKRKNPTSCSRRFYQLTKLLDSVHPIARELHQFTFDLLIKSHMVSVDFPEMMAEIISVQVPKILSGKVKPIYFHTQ
The data set can be described thus: AR Antagonist Cell Assay (MDA-MB453-MMTV clone 54-19, luciferase reporter). It is filed as cell-based. The settings on record: inhibition of induction by DHT (final concentration at 100 μM), 17 hr, compound 0.32-1000 nM, mean of multiple tests. Put shortly:
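MDA-MB453 breast tumour cells stably carrying an ARE-containing MMTV promoter driving firefly luciferase, plated overnight at 37° C in charcoal-treated serum medium. DHT added (final […]) and incubated 17 hr at 37° C. Luminescence read after adding luciferase buffer; values are means of multiple tests.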
A general note: In a reporter assay the amount or activity of a reporter protein is the signal.

Another data set addresses T2, hAR (Homo sapiens, UniProt P10275).
T2 sequence (P10275 1-920): T1 sequence (P10275 1-920 Q868H) with H868Q
The experiment in a line: Competitive binding of 3H-DHT to baculovirus/Sf9 generated hAR extracts. The note with it: one hour at 4° C., mean of multiple tests. Put shortly: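 Baculovirus/Sf9-expressed hAR extract incubated with test compound, hydroxylapatite and 1 nM 3H-DHT tracer for 1 h at 4° C, then washed free of unbound tracer. Affinity given as concentration inhibiting half of maximal 3H-DHT binding.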

The subject of a further data set is spinal BMD. The settings on record: after 7 years of treatment; cited from earlier work.
Where [1] appears, read: IC50, concentration at which one half of maximum binding of 1 nM 3H-DHT to hAR is inhibited.

What is called melting point is the temperature, or range, at which the solid turns liquid. Regarding `C[C@@H](c1ccc(F)cc1)N1CC(C)(C)[C@@H](Oc2ccc(C#N)c(C(F)(F)F)c2)C1=O` (mixture of isomers) [Example 71, (±)-4-{1-[1-(4-Fluoro-phenyl)-ethyl]-4,4-dimethyl-2-oxo-pyrrolidin-3-yloxy}-2-trifluoromethyl-benzonitrile], the melting point was in the range of 114 to 115 °C.
The IC50 is the concentration that gives 50% inhibition. For the compound `CSc1ccc(CN2CC(C)(C)C(Oc3ccc(C#N)c(C(F)(F)F)c3)C2=O)cc1` (racemic) [Example 22, (±)-4-[4,4-Dimethyl-1-(4-methylsulfanyl-benzyl)-2-oxo-pyrrolidin-3-yloxy]-2-trifluoromethyl-benzonitrile], the melting point fell in the range of 44.1 to 44.8 °C. In addition, the midpoint of inhibition on androgen receptor, the IC50, lay at 0.099 µM. Moreover, the IC50 at hAR (setting [1]) amounted to 0.04 µM.
Compound `C[C@@H](c1ccc(F)cc1)N1CC(C)(C)[C@@H](Oc2ccc(C#N)c(C(F)(F)F)c2)C1=O` (racemic) [Example 70, (±)-4-{1-[1-(4-Fluoro-phenyl)-ethyl]-4,4-dimethyl-2-oxo-pyrrolidin-3-yloxy}-2-trifluoromethyl-benzonitrile] showed a melting point of 82 to 83 °C. It took 0.085 µM to reach half-maximal inhibition at androgen receptor (IC50). In addition, the IC50 on hAR (setting [1]) came out at 0.052 µM.
The matching figures for `CC(c1cccc(O)c1)N1CC(C)(C)C(Oc2ccc(C#N)c(C(F)(F)F)c2)C1=O` (single isomer, unassigned; (+)) [Example 24, (+)-4-{1-[1-(3-Hydroxy-phenyl)-ethyl]-4,4-dimethyl-2-oxo-pyrrolidin-3-yloxy}-2-trifluoromethyl-benzonitrile]: 185.1 to 185.8 °C, 0.033 µM and 0.01 µM.
`CC1(C)CN(Cc2nnc(-c3ccc(O)cc3O)o2)C(=O)C1Oc1ccc(C#N)c(C(F)(F)F)c1` (centres unmarked) [Example 123, 4-{1-[5-(2,4-Dihydroxy-phenyl)-[1,3,4]oxadiazol-2-ylmethyl]-4,4-dimethyl-2-oxo-pyrrolidin-3-yloxy}-2-trifluoromethyl-benzonitrile]: the IC50 on androgen receptor (read-out: IC50) was 0.176 µM; at hAR (setting [1]) it was 0.061 µM.
In the case of `CC1(C)CN(Cc2nnc(-c3ccccc3Cl)o2)C(=O)C1Oc1ccc(C#N)c(C(F)(F)F)c1` (centres unmarked) [Example 127, 4-{1-(5-(2-Chloro-phenyl)-[1,3,4]oxadiazol-2-ylmethyl]-4,4-dimethyl-2-oxo-pyrrolidin-3-yloxy}-2-trifluoromethyl-benzonitrile], the 50% inhibitory concentration (IC50) at androgen receptor (read-out: IC50) was more than 1 µM; at hAR (concentration at which one half of maximum binding of 1 nM 3H-DHT to hAR is inhibited, read-out: IC50) it was 0.198 µM.
With `CC(c1nnc(-c2ccccc2O)o1)N1CC(C)(C)C(Oc2ccc(C#N)c(C(F)(F)F)c2)C1=O` (centres unmarked) [Example 130, 4-(1-{1-[5-(2-hydroxy-phenyl)-[1,3,4]oxadiazol-2-yl]-ethyl}-4,4-dimethyl-2-oxo-pyrrolidin-3-yloxy)-2-trifluoromethyl-benzonitrile], the IC50 came to 0.198 µM on androgen receptor (read-out: IC50) and 0.085 µM on hAR (setting [1]).
Regarding `NCCCC(O)(P(=O)(O)O)P(=O)(O)O` [alendronate], in the data set with spinal BMD, the “increase in spinal BMD” value was not above 11%.
